Test results from patent publication US5102897A, “3,5-ditertiarybutyl-4-hydroxyphenyl, 1,3,4-thiadiazoles and oxadiazoles linked by carbon, oxygen, and sulfur residues” (Warner-Lambert Company, priority 1991, dated 1992).

Key:
[1] = tested on: Carrageenan-Induced Rat Foot Paw Edema; assay: Carrageenan-Induced Rat Foot Paw Edema-2 (CFE-2) Assay; assay type: in vivo; details: dosed 1 hour before carrageenan, edema measured 5 hours after, probit analysis, read-out: CFE: ID40 for inhibition of swelling
Protocol: Carrageenan-Induced Rat Foot Paw Edema-2 (CFE-2) Assay: Protocol
Carrageenan solution (1% w/v) is prepared by dissolving 100 mg carrageenan (Marine Colloidal Div., Springfield, N.J.) in 10 mL of sterile saline (0.9) solution (Travenol). The solution is vortexed for 30 to 45 minutes. Animals are dosed with compound 1 hour before carrageenan challenge. Foot paw edema is induced by injecting 0.10 mL of the 1% carrageenan subcutaneously into the plantar portion of the right hind paw of each rat under light anesthesia. Initial foot paw volume is measured immediately following carrageenan challenge using mercury plethysmography (Buxco Electronics). Edema is measured 5 hours after carrageenan. The difference between the 5-hour and the initial paw volume is expressed as delta edema. The delta edema for each test group of animals is used to calculate the percent inhibition of edema achieved by the compound at the test dose compared with the vehicle control group. The data in Table 1 (the dose at which swelling is inhibited by the noted) is calculated by probit analysis for the dose at which percent inhibition occurs.

[2] = target: T1, 5-Lipoxygenase (Rattus norvegicus, UniProt P12527); assay: ARBL whole cell 5-lipoxygenase assay (RBL-1 cells, LTB4 formation, RIA); assay type: cell-based; details: RBL-1 whole cells; for IC50: calcium ionophore A23187 (5 μM), read-out: ARBL: IC50 for LTB4 inhibition; for inhibition at 10 µM / inhibition at 16 µM: A23187, read-out: ARBL: Percent inhibition of LTB4 @ μM noted
T1 construct: host or cells: RBL-1 (rat basophilic leukemia)
T1 sequence (P12527 1-673): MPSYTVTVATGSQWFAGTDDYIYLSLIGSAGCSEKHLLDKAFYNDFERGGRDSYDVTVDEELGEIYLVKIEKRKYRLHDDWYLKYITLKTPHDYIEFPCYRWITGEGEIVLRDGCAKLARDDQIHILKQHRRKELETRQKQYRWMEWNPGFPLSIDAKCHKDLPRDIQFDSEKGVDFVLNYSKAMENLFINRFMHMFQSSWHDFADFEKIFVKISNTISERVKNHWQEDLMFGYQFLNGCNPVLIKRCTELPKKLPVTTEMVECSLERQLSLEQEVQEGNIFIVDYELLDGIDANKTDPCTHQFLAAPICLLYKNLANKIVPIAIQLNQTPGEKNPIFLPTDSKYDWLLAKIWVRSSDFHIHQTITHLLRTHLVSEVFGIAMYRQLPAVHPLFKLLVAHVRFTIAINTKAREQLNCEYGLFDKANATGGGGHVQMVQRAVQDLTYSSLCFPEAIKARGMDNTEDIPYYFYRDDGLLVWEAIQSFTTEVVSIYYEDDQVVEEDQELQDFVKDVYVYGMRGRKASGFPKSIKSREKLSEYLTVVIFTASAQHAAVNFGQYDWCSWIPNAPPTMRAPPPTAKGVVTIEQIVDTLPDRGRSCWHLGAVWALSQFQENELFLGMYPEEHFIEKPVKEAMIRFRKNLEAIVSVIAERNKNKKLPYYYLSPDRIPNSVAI
Protocol: (§1) ARBL/ARBC Whole Cell 5-Lipoxygenase and Cyclooxygenase Assays
(§2) The rat basophilic leukemia cell line (RBL-1) was obtained from the American Type Culture Collection (Rockville, MD).
(§3) Radioimmunoassay (RIA) kits of LTB4 and PGF2.sbsb.α were obtained from Amersham (Arlington Heights, Ill.) and Seragen (Boston, Mass.), respectively.
(§4) RBL-1 cells are grown in suspension culture in Eagle's minimum essential medium supplemented with 12% fetal bovine serum at 37° C. in an incubator supplied with air-5% carbon dioxide. Cells are harvested by centrifugation. They are washed with cold phosphate buffered saline pH 7.4 (PBS; NaCl, 7.1 g; Na2 HPO4, 1.15 g; KH2 PO4, 0.2 g; and KCl, 0.2 g/L). Cells are finally suspended in PBS containing 1.0 mM calcium at a density of 2×10^6 cells/mL. Cells are incubated with and without test agent (in DMSO) (1% DMSO is without effect on arachidonic acid metabolism) for ten minutes at room temperature. Calcium ionophore A23187 (5 μM) is added and cells are incubated for 7 minutes at 37° C. The reaction is stopped by chilling the tubes on ice for 10 minutes. Cells are separated by centrifugation and the supernatant is stored at -20° C. Aliquots (100 μL) are analyzed for LTB4 and PGF2.sbsb.α using radioimmunoassay kits as provided by the supplier.
(§5) Table 1 contains biochemical data obtained from this whole cell assay as IC50 s which are calculated as the amount of test compound causing 50% inhibition or percent of inhibition at the named micromoles (μM) of LTB4 or PGF2.sbsb.α formation.

[3] = target: T2, Cyclooxygenase (Rattus norvegicus, UniProt Q63921); assay: ARBC whole cell cyclooxygenase assay (RBL-1 cells, PGF2α formation, RIA); assay type: cell-based; details: RBL-1 whole cells; for IC50: calcium ionophore A23187 (5 μM), read-out: ARBC: IC50 for PGF2α inhibition; for inhibition at 10 µM: read-out: ARBC: Percent inhibition of PGF2α @ 10 μM
T2 construct: host or cells: RBL-1 (rat basophilic leukemia)
T2 sequence (Q63921 27-602): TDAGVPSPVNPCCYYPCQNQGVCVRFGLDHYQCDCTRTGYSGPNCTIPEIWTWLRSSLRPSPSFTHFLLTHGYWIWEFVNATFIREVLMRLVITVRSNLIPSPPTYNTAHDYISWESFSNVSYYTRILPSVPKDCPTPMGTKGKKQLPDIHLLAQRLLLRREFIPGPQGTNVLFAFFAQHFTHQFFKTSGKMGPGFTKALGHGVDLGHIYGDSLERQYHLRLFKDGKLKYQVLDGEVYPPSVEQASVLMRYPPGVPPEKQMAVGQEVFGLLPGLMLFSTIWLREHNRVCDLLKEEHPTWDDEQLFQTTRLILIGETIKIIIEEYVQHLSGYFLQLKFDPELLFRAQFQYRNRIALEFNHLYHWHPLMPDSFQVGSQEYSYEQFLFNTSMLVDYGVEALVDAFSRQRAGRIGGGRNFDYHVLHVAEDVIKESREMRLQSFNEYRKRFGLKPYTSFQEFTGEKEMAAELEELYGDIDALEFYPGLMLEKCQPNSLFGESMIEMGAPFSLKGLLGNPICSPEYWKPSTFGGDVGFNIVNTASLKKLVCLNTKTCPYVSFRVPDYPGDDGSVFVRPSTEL
Protocol: as §1, §2, §3, §4, §5

| Structure (SMILES) | IC50 [2] | inhibition at 10 µM [2] | inhibition at 10 µM ([3]; A23187) | other results |
| --- | --- | --- | --- | --- |
| CC(C)(C)c1cc(CCc2nnc(N)o2)cc(C(C)(C)C)c1O [Example 26, 4-[2-(5-Amino-1,3,4-oxadiazol-2-yl)ethyl]-2,6-bis(1,1-dimethylethyl)phenol] |  | 40% |  |  |
| CC(C)(C)c1cc(Sc2nncs2)cc(C(C)(C)C)c1O [Example 10, 2,6-Bis(1,1-dimethylethyl)-4-[(1,3,4-thiadiazol-2-yl)thio]-phenol] |  | 59% | 54% |  |
| CC(C)(C)c1cc(C(=O)c2n[nH]c(=S)s2)cc(C(C)(C)C)c1O [Example 31, [3,5-Bis(1,1-dimethylethyl)-4-hydroxphenyl][5(4H)-thioxo-1,3,4-thiadiazol-2-yl]methanone] |  | 100% | 92% |  |
| CC(C)(C)c1cc(Sc2n[nH]c(=S)s2)cc(C(C)(C)C)c1O [Example 9, 5-[[3,5-Bis(1,1-dimethylethyl)-4-hydroxyphenyl]thio]-1,3,4-thiadiazole-2(3H)-thione] | 1100 nM |  |  | IC50 [3]: 3600 nM |
| CC(C)(C)c1cc(Sc2n[nH]c(=O)s2)cc(C(C)(C)C)c1O [Example 8, 5[[3,5-Bis(1,1-dimethylethyl)-4-hydroxyphenyl]thio]-1,3,4-thiadiazol-2(3H)-one] |  |  |  | inhibition at 16 µM [2]: 90% |
| CSc1nnc(C(=O)c2cc(C(C)(C)C)c(O)c(C(C)(C)C)c2)s1 [Example 30] |  | 100% | 100% |  |
| CC(C)(C)c1cc(CCc2nnco2)cc(C(C)(C)C)c1O [Example 25, 2,6-Bis(1,1-dimethylethyl)-4-[2-(1,3,4-oxadiazol-2-yl)ethyl]phenol] |  | 100% | 52% |  |
| CC(C)(C)c1cc(C(=O)c2nnc(N)s2)cc(C(C)(C)C)c1O [Example 29, (5-Amino-1,3,4-thiadiazol-2-yl)[3,5-bis(1,1-dimethylethyl)-4-hydroxyphenyl]methanon] | 1100 nM |  |  | IC50 [3]: 5200 nM |
| CC(C)(C)c1cc(Sc2n[nH]c(=O)o2)cc(C(C)(C)C)c1O [Example 6, 5-[[3,5-Bis(1,1-dimethylethyl)-4-hydroxyphenyl]thio]-1,3,4-oxadiazol-2(3H)-one] |  |  |  | inhibition at 16 µM [2]: 91%; ARBC: Percent inhibition of PGF2α ([3]; @ 16 (as printed in the cell), A23187): 46% |

Now from value to molecule, other results behind:

| IC50 [2] | inhibition at 10 µM [2] | inhibition at 10 µM ([3]; A23187) | Structure (SMILES) | other results |
| --- | --- | --- | --- | --- |
| 2000 nM |  |  | CC(C)(C)c1cc(Sc2n[nH]c(=S)o2)cc(C(C)(C)C)c1O [Example 7, 5-[[3,5-Bis(1,1-dimethylethyl)-4-hydroxyphenyl]thio]-1,3,4-oxadiazole-2(3H)-thione] | ED40 [1]: 8.6 mg/kg; IC50 [3]: 1500 nM |
|  | 60% |  | CC(C)(C)c1cc(CCc2n[nH]c(=O)o2)cc(C(C)(C)C)c1O [Example 23, 5-[2-[3,5-bis(1,1-dimethylethyl)-4-hydroxyphenyl]ethyl]-1,3,4-oxadiazol-2(3H)-one] |  |
| 600 nM |  | 75% | CC(C)(C)c1cc(SCCc2n[nH]c(=O)o2)cc(C(C)(C)C)c1O [Example 13, 5-[2-[[3,5-Bis(1,1-dimethylethyl)-4-hydroxyphenyl]thio]ethyl]-1,3,4-oxadiazol-2(3H)-one] |  |
| 4200 nM |  |  | CC(C)(C)c1cc(SCCc2n[nH]c(=S)o2)cc(C(C)(C)C)c1O [Example 14, 5-[2-[3,5-Bis(1,1-dimethylethyl)-4-hydroxyphenyl]thio]ethyl-1,3,4-oxadiazole-2(3H)-thione] |  |
|  | 100% | 55% | CC(C)(C)c1cc(SCCc2nnco2)cc(C(C)(C)C)c1O [Example 15] |  |
|  | 100% |  | CC(C)(C)c1cc(SCCc2nnc(N)o2)cc(C(C)(C)C)c1O [Example 16] |  |
